The values below come from US20250019387A1 (Frontier Medicines Corporation, priority 0001, published 2025).

For the assay, the target named is KRAS G12C and cRAF (Ras-binding domain) interaction (Homo sapiens (Human), UniProt P01116, C118S/C51S/C80L/G12C). In words: Inhibition of KRAS G12C and cRAF binding (AlphaScreen). Conditions: GMPPNP-loaded KRAS G12C, 19-20 hours incubation with compound; read-out: IC50 (Inhibition of KRAS G12C and cRAF Binding). In short, it runs like this: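 IC50 values come from 4-parameter nonlinear regression of AlphaScreen signal (680 nm excitation, 570 nm emission). Compound plates sat 19-20 h at room temperature before RBD and donor/acceptor beads were added in Hepes pH 7.4 buffer with 150 mM NaCl, 5 mM MgCl2, 2% DMSO for 60-90 min; biotin-AviTag-GST replaced RBD to flag assay-technology interferers.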
Chain of KRAS G12C and cRAF (Ras-binding domain) interaction (P01116 other isoform, or with tags, fused parts or gaps G12C/C51S/C80L/C118S): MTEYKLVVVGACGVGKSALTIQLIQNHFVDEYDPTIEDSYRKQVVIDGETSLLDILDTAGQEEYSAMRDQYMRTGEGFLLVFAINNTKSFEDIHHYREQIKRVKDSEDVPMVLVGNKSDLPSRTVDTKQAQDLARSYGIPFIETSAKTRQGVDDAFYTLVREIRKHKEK
A general note: In Alpha technology, singlet oxygen from a donor bead excites a nearby acceptor bead.
Consider `CN(CC1CN(C(=O)/C=C/c2ccncn2)C1)c1nc(OC[C@@]23CCCN2C[C@H](F)C3)nc2c1CCN(c1cccc3cccc(Cl)c13)C2` [Example 70, (E)-1-(3-(((7-(8-chloronaphthalen-1-yl)-2-(((2R,7aS)-2-fluorohexahydro-1H-pyrrolizin-7a-yl)methoxy)-5,6,7,8-tetrahydropyrido[3,4-d]pyrimidin-4-yl)(methyl)amino)methyl)azetidin-1-yl)-3-(pyrimidin-4-yl)prop-2-en-1-one], for which the IC50 was 10 to 100 nM.
The result for `Cc1nccc(/C=C/C(=O)N2CC[C@@H](N(C)c3nc(OC[C@@]45CCCN4C[C@H](F)C5)nc4c3CCN(c3cccc5cccc(Cl)c35)C4)C2)n1` [Example 71, (E)-1-((R)-3-((7-(8-chloronaphthalen-1-yl)-2-(((2R,7aS)-2-fluorohexahydro-1H-pyrrolizin-7a-yl)methoxy)-5,6,7,8-tetrahydropyrido[3,4-d]pyrimidin-4-yl)(methyl)amino)pyrrolidin-1-yl)-3-(2-methylpyrimidin-4-yl)prop-2-en-1-one] reads more than 500 nM; that for `Cc1nccc(/C=C/C(=O)N2CC[C@@H](N(C)c3nc(OC[C@@]45CCCN4C[C@H](F)C5)nc4c(F)c(-c5cccc6cccc(Cl)c56)ncc34)C2)n1` [Example 72, (E)-1-((R)-3-((7-(8-chloronaphthalen-1-yl)-8-fluoro-2-(((2R,7aS)-2-fluorotetrahydro-1H-pyrrolizin-7a(5H)-yl)methoxy)pyrido[4,3-d]pyrimidin-4-yl)(methyl)amino)pyrrolidin-1-yl)-3-(2-methylpyrimidin-4-yl)prop-2-en-1-one], 100 to 500 nM; that for `C=CC(=O)N1C[C@H](F)[C@@H](N(C)c2nc(OC[C@@]34CCCN3C[C@H](F)C4)nc3c(F)c(-c4cccc5cccc(Cl)c45)ncc23)C1` [Example 73, 1-((3S,4S)-3-((7-(8-chloronaphthalen-1-yl)-8-fluoro-2-(((2R,7aS)-2-fluorohexahydro-1H-pyrrolizin-7a-yl)methoxy)pyrido[4,3-d]pyrimidin-4-yl)(methyl)amino)-4-fluoropyrrolidin-1-yl)prop-2-en-1-one], 10 to 100 nM.
The result for `Cc1nsc(/C=C/C(=O)N2CC(CN(C)c3nc(OC[C@@]45CCCN4C[C@H](F)C5)nc4c(F)c(-c5cccc6cccc(Cl)c56)ncc34)C2)n1` [Example 74, (E)-1-(3-(((7-(8-chloronaphthalen-1-yl)-8-fluoro-2-(((2R,7aS)-2-fluorotetrahydro-1H-pyrrolizin-7a(5H)-yl)methoxy)pyrido[4,3-d]pyrimidin-4-yl)(methyl)amino)methyl)azetidin-1-yl)-3-(3-methyl-1,2,4-thiadiazol-5-yl)prop-2-en-1-one] reads 100 to 500 nM; that for `Cc1nsc(/C=C/C(=O)N2CC[C@@H](N(C)c3nc(OC[C@@]45CCCN4C[C@H](F)C5)nc4c(F)c(-c5cccc6cccc(Cl)c56)ncc34)C2)n1` [Example 75, (E)-1-((R)-3-((7-(8-chloronaphthalen-1-yl)-8-fluoro-2-(((2R,7aS)-2-fluorotetrahydro-1H-pyrrolizin-7a(5H)-yl)methoxy)pyrido[4,3-d]pyrimidin-4-yl)(methyl)amino)pyrrolidin-1-yl)-3-(3-methyl-1,2,4-thiadiazol-5-yl)prop-2-en-1-one], 10 to 100 nM.
For `C[C@H](F)c1noc(/C=C/C(=O)N2CC(CN(C)c3nc(OC[C@@]45CCCN4C[C@H](F)C5)nc4c(F)c(-c5cccc6cccc(Cl)c56)ncc34)C2)n1` [Example 76, (E)-1-(3-(((7-(8-chloronaphthalen-1-yl)-8-fluoro-2-(((2R,7aS)-2-fluorotetrahydro-1H-pyrrolizin-7a(5H)-yl)methoxy)pyrido[4,3-d]pyrimidin-4-yl)(methyl)amino)methyl)azetidin-1-yl)-3-(3-((S)-1-fluoroethyl)-1,2,4-oxadiazol-5-yl)prop-2-en-1-one], the IC50 was less than 10 nM.
Take `C[C@H](F)c1noc(/C=C/C(=O)N2CC[C@@H](N(C)c3nc(OC[C@@]45CCCN4C[C@H](F)C5)nc4c(F)c(-c5cccc6cccc(Cl)c56)ncc34)C2)n1` [Example 77, (E)-1-((R)-3-((7-(8-chloronaphthalen-1-yl)-8-fluoro-2-(((2R,7aS)-2-fluorohexahydro-1H-pyrrolizin-7a-yl)methoxy)pyrido[4,3-d]pyrimidin-4-yl)(methyl)amino)pyrrolidin-1-yl)-3-(3-((S)-1-fluoroethyl)-1,2,4-oxadiazol-5-yl)prop-2-en-1-one]: the IC50 was less than 10 nM.
Next, `CN(CC1CN(C(=O)/C=C/c2nc(C(C)(C)O)no2)C1)c1nc(OC[C@@]23CCCN2C[C@H](F)C3)nc2c(F)c(-c3cccc4ccc(F)c(Cl)c34)ncc12` [Example 78, (E)-1-(3-(((7-(8-chloro-7-fluoronaphthalen-1-yl)-8-fluoro-2-(((2R,7aS)-2-fluorotetrahydro-1H-pyrrolizin-7a(5H)-yl)methoxy)pyrido[4,3-d]pyrimidin-4-yl)(methyl)amino)methyl)azetidin-1-yl)-3-(3-(2-hydroxypropan-2-yl)-1,2,4-oxadiazol-5-yl)prop-2-en-1-one]: less than 10 nM; `CN(CC1CN(C(=O)/C=C/CN2CCOCC2)C1)c1nc(OC[C@@]23CCCN2C[C@H](F)C3)nc2c(F)c(-c3cccc4ccc(F)c(Cl)c34)ncc12` [Example 79, (E)-1-(3-(((7-(8-chloro-7-fluoronaphthalen-1-yl)-8-fluoro-2-(((2R,7aS)-2-fluorotetrahydro-1H-pyrrolizin-7a(5H)-yl)methoxy)pyrido[4,3-d]pyrimidin-4-yl)(methyl)amino)methyl)azetidin-1-yl)-4-morpholinobut-2-en-1-one]: 10 to 100 nM.
Turning to `C=CC(=O)N1CC[C@@H](N(C)c2nc(OC[C@]34CCCN3C[C@H](F)C4)nc3c(F)c(-c4cccc5ccc(F)c(Cl)c45)ncc23)C1` [Example 81, 1-((R)-3-((7-(8-chloro-7-fluoronaphthalen-1-yl)-8-fluoro-2-(((2R,7aR)-2-fluorotetrahydro-1H-pyrrolizin-7a(5H)-yl)methoxy)pyrido[4,3-d]pyrimidin-4-yl)(methyl)amino)pyrrolidin-1-yl)prop-2-en-1-one], the IC50 fell in the range of 10 to 100 nM.
Next, `C=CC(=O)N1CC[C@@H](N(C)c2nc(OC[C@@]34CCCN3C[C@H](F)C4)nc3c(F)c(-c4cc(OC(F)F)cc5cccc(Cl)c45)ncc23)C1` [Example 82, 1-((R)-3-((7-(8-chloro-3-(difluoromethoxy)naphthalen-1-yl)-8-fluoro-2-(((2R,7aS)-2-fluorotetrahydro-1H-pyrrolizin-7a(5H)-yl)methoxy)pyrido[4,3-d]pyrimidin-4-yl)(methyl)amino)pyrrolidin-1-yl)prop-2-en-1-one]: more than 500 nM; `C[C@@H](F)c1noc(/C=C/C(=O)N2CC(CN(C)c3nc(OC[C@@]45CCCN4C[C@H](F)C5)nc4c(F)c(-c5cccc6cccc(Cl)c56)ncc34)C2)n1` [Example 83, (E)-1-(3-(((7-(8-chloronaphthalen-1-yl)-8-fluoro-2-(((2R,7aS)-2-fluorotetrahydro-1H-pyrrolizin-7a(5H)-yl)methoxy)pyrido[4,3-d]pyrimidin-4-yl)(methyl)amino)methyl)azetidin-1-yl)-3-(3-((R)-1-fluoroethyl)-1,2,4-oxadiazol-5-yl)prop-2-en-1-one]: less than 10 nM; `C[C@@H](F)c1noc(/C=C/C(=O)N2CC[C@@H](N(C)c3nc(OC[C@@]45CCCN4C[C@H](F)C5)nc4c(F)c(-c5cccc6cccc(Cl)c56)ncc34)C2)n1` [Example 84, (E)-1-((R)-3-((7-(8-chloronaphthalen-1-yl)-8-fluoro-2-(((2R,7aS)-2-fluorotetrahydro-1H-pyrrolizin-7a(5H)-yl)methoxy)pyrido[4,3-d]pyrimidin-4-yl)(methyl)amino)pyrrolidin-1-yl)-3-(3-((R)-1-fluoroethyl)-1,2,4-oxadiazol-5-yl)prop-2-en-1-one]: less than 10 nM.
For `CC(C)c1noc(/C=C/C(=O)N2CC[C@@H](N(C)c3nc(OCC45CCCN4CCC5)nc4c(F)c(-c5cccc6ccc(F)c(Cl)c56)ncc34)C2)n1` [Example 85, (R,E)-1-(3-((7-(8-chloro-7-fluoronaphthalen-1-yl)-8-fluoro-2-((hexahydro-1H-pyrrolizin-7a-yl)methoxy)pyrido[4,3-d]pyrimidin-4-yl)(methyl)amino)pyrrolidin-1-yl)-3-(3-isopropyl-1,2,4-oxadiazol-5-yl)prop-2-en-1-one], the 50% inhibitory concentration (IC50) was less than 10 nM.
Next, `Cc1noc(/C=C/C(=O)N2CC(CN(C)c3nc(OC[C@@]45CCCN4C[C@H](F)C5)nc4c(F)c(-c5cc(O)cc6ccccc56)ncc34)C2)n1` [Example 86, (E)-1-(3-(((8-fluoro-2-(((2R,7aS)-2-fluorotetrahydro-1H-pyrrolizin-7a(5H)-yl)methoxy)-7-(3-hydroxynaphthalen-1-yl)pyrido[4,3-d]pyrimidin-4-yl)(methyl)amino)methyl)azetidin-1-yl)-3-(3-methyl-1,2,4-oxadiazol-5-yl)prop-2-en-1-one]: less than 10 nM; `C=CC(=O)N1C[C@H](N(C)c2nc(OC[C@@]34CCCN3C[C@H](F)C4)nc3c(F)c(-c4cccc5cccc(Cl)c45)ncc23)C[C@@H]1CC#N` [Example 87, 2-((2R,4R)-1-acryloyl-4-((7-(8-chloronaphthalen-1-yl)-8-fluoro-2-(((2R,7aS)-2-fluorotetrahydro-1H-pyrrolizin-7a(5H)-yl)methoxy)pyrido[4,3-d]pyrimidin-4-yl)(methyl)amino)pyrrolidin-2-yl)acetonitrile]: 100 to 500 nM; `CN(c1nc(OC[C@@]23CCCN2C[C@H](F)C3)nc2c(F)c(-c3cccc4ccc(F)c(Cl)c34)ncc12)[C@@H]1CCN(C(=O)/C=C/c2nc(C(C)(C)O)no2)C1` [Example 88, (E)-1-((R)-3-((7-(8-chloro-7-fluoronaphthalen-1-yl)-8-fluoro-2-(((2R,7aS)-2-fluorotetrahydro-1H-pyrrolizin-7a(5H)-yl)methoxy)pyrido[4,3-d]pyrimidin-4-yl)(methyl)amino)pyrrolidin-1-yl)-3-(3-(2-hydroxypropan-2-yl)-1,2,4-oxadiazol-5-yl)prop-2-en-1-one]: less than 10 nM.

For orientation: IC50 means the concentration at which inhibition is half-maximal.
